Reference: patent US9814712B2, “(S)-pirlindole and its pharmaceutically acceptable salts for use in medicine” (TECNIMEDE SOCIEDADE TECNICO-MEDICINAL S.A., priority 2014, dated 2017)

Test system: spared nerve injury (SNI) model, mechanical allodynia
Test: Von Frey test of mechanical allodynia in the spared nerve injury (SNI) model
Type: in vivo, Sprague-Dawley rats
Conditions: SNI rats, 20 mg/kg i.p. daily, Von Frey monofilaments, naive and sham 15 g
Source text: For this purpose, the inventors have chosen the animal model designed by Decosterd and Woolf (Pain, 2000), which developed a partial denervation model, technically easy to perform and subject to minimal variability in the degree of damage produced. Most important was that this is a model that will enable a direct measurement of changes in both injured primary sensory neurons and in neighbouring intact sensory neurons so that their relative contribution to the pathophysiology of pain could be investigated. […] All procedures were performed on adult (200-250 g) male Sprague-Dawley rats. Under halothane (2%) anesthesia, the skin on the lateral surface of the thigh was incised and a section made directly through the biceps femoris muscle exposing the sciatic nerve and its three terminal branches: the sural, the common peroneal and the tibial nerves. The spared nerve injury procedure comprised an axotomy and ligation of the tibial and common peroneal nerves leaving the sural nerve intact. The common peroneal and the tibial nerves were tight-ligated with 5.0 silk and sectioned distal to the ligation, removing 2±4 mm of the distal nerve stump. Great care was taken to avoid any contact with or stretching of the intact sural nerve. Muscle and skin were closed in two layers. Sham controls involved exposure of the sciatic nerve and its branches without any lesion. The Von Frey test is a mechanical sensitivity assay that consists of thin calibrated plastic filaments, called Von Frey hairs, which are applied to the plantar surface of the hindpaw of the tested animal. The filaments present different degrees of stiffness that are used to determine the one that evokes a hindpaw withdrawal. Each filament, starting with the less stiff, is applied to the plantar surface of both hindpaws of each rat. The process is repeated with Von Frey hairs of increasing stiffness until one evokes a reflexive and sustained hindpaw withdrawal. This is defined as the withdrawal threshold, is measured in grams and is an indicator of mechanical allodynia. In the present example the animals were divided in 6 (six) groups (n=7 per group): naive control (negative control), sham control, SNI plus water (positive control), SNI plus (rac)-pirlindole 20 mg/kg, SNI plus (S)-pirlindole 20 mg/kg, SNI plus (R)-pirlindole 20 mg/kg and. After the application of surgical procedure to the groups of sham control, SNI plus water (positive control), SNI plus (rac)-pirlindole, SNI plus (S)-pirlindole and SNI plus (R)-pirlindole, the animals were confined during a 7 weeks (7 wk) period aiming the full induction of mechanical allodynia. Following a 3 week (3 wk), treatment period was started and water or one of the test items (rac-pirlindole, S-pirlindole and R-pirlindole) were administered by intraperitoneal (ip) route, on a daily basis. At the 2nd and 3rd week of treatment the mechanical allodynia was tested. The animals were placed on an elevated wire grid and the plantar surface of the paw stimulated with a series of ascending force Von Frey monofilaments. The threshold was taken as the lowest force that evoked a brisk withdrawal response to one of the repetitive stimuli (Tal and Bennett, 1994). The lateral and medial plantar surfaces of the paw as well as its dorsal surface were tested.

[1] = wk2 of treatment, SNI plus water 0.41 g
[2] = wk3 of treatment, SNI plus water 0.14 g

Row | SMILES | mean lowest force that evoked a brisk withdrawal response [1] [g] | mean lowest force that evoked a brisk withdrawal response [2] [g]
1 | Cc1ccc2c(c1)c1c3n2CCNC3CCC1 (racemic) [(rac)-pirlindole, 2,3,3a,4,5,6-hexahydro-8 methyl-1H-pyrazino [3,2,1-j, k] carbazole] | 3.50 | 2.08
2 | Cc1ccc2c(c1)c1c3n2CCN[C@@H]3CCC1 [(R)-pirlindole] | 3.08 | 1.39
3 | Cc1ccc2c(c1)c1c3n2CCN[C@H]3CCC1 [(S)-pirlindole] | 4.51 | 7.43
